Earlier results in article PMC8453963 (Chemmedchem, 2021).
Marks after values point to notes of the source that are not given here.

Conditions: ref [53]

log D oct/PBS: −2.91^[a]
SMILES: O=C([O-])CN(CCN(CC(=O)[O-])Cc1cc(CCC(=O)NCCCCCC(=O)NCCCC[C@H](NC(=O)N[C@@H](CCC(=O)O)C(=O)O)C(=O)O)ccc1[O-])Cc1cc(CCC(=O)O)ccc1[O-].[68Ga+3].[OH3+] [[^68Ga]Ga‐PSMA‐11]
